In PubChem BioAssay (NCI):
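GI50: concentration for 50% inhibition of growth. The concentration for full growth arrest is given as TGI.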

Experiments:
Experiment in all cases: NCI tumour cell line growth inhibition, 384-well format
[1] = tested on: MOLT-4 leukemia
[2] = tested on: MCF7 breast
[3] = tested on: SK-MEL-28 melanoma
[4] = tested on: DU-145 prostate
[5] = tested on: NCI-H322M lung
[6] = tested on: CCRF-CEM leukemia
[7] = tested on: RPMI-8226 leukemia
[8] = tested on: SK-OV-3 ovarian
[9] = tested on: BT-549 breast
[10] = tested on: COLO 205 colon
[11] = tested on: NCI-H226 lung
[12] = tested on: PC-3 prostate
[13] = tested on: SNB-19 CNS
[14] = tested on: SF-295 CNS
[15] = tested on: SN12C renal
[16] = tested on: NCI-H460 NSCLC
[17] = tested on: HOP-62 NSCLC
[18] = tested on: IGROV1 ovarian
[19] = tested on: UACC-257 melanoma
[20] = tested on: MDA-MB-231 breast
[21] = tested on: HT29 colon
[22] = tested on: UO-31 renal
[23] = tested on: SNB-75 CNS
[24] = tested on: UACC-62 melanoma
[25] = tested on: OVCAR-3 ovarian
[26] = tested on: SF-268 CNS
[27] = tested on: LOX IMVI melanoma
[28] = tested on: 786-0 renal
[29] = tested on: SW-620 colon
[30] = tested on: CAKI-1 renal
[31] = tested on: SK-MEL-5 melanoma
[32] = tested on: TK-10 renal
[33] = tested on: NCI-H23 lung
[34] = tested on: MALME-3M melanoma
[35] = tested on: SF-539 CNS
[36] = tested on: OVCAR-8 ovarian
[37] = tested on: ACHN renal
[38] = tested on: MDA-MB-435 melanoma
[39] = tested on: MDA-MB-468 breast
[40] = tested on: RXF 393 renal
[41] = tested on: SR leukemia
[42] = tested on: HS 578T breast
[43] = tested on: HOP-92 NSCLC
[44] = tested on: HCT-15 colon
[45] = tested on: A498 renal
[46] = tested on: NCI-H522 lung
[47] = tested on: KM12 colon
[48] = tested on: OVCAR-5 ovarian
[49] = tested on: A549 NSCLC
[50] = tested on: M14 melanoma
[51] = tested on: HL-60(TB) leukemia
[52] = tested on: K-562 leukemia
[53] = tested on: HCC-2998 colon
[54] = tested on: NCI/ADR-RES ovarian
[55] = tested on: OVCAR-4 ovarian
[56] = tested on: EKVX NSCLC

## C[C@@H]1CCc2ncc(F)cc2[C@H]2CCCN2c2ccn3ncc(c3n2)C(=O)N1
[1]
  GI50: 5.07 µM
  TGI: 20.4 µM
[2]
  GI50: 18.5 µM
  TGI: > 100 µM
[3]
  GI50: 70.2 µM
  TGI: > 100 µM
[4]
  GI50: > 100 µM
  TGI: > 100 µM
[5]
  GI50: > 100 µM
  TGI: > 100 µM
[6]
  GI50: 8.73 µM
  TGI: > 100 µM
[7]
  GI50: 2.36 µM
  TGI: > 100 µM
[8]
  GI50: 65 µM
  TGI: > 100 µM
[9]
  GI50: 76.3 µM
  TGI: > 100 µM
[10]
  GI50: 64.9 µM
  TGI: > 100 µM
[11]
  GI50: 5.37 µM
  TGI: > 100 µM
[12]
  GI50: > 100 µM
  TGI: > 100 µM
[13]
  GI50: > 100 µM
  TGI: > 100 µM
[14]
  GI50: 30.1 µM
  TGI: > 100 µM
[15]
  GI50: 20.8 µM
  TGI: > 100 µM
[16]
  GI50: > 100 µM
  TGI: > 100 µM
[17]
  GI50: 63.4 µM
  TGI: > 100 µM
[18]
  GI50: 30.9 µM
  TGI: > 100 µM
[19]
  GI50: 63.3 µM
  TGI: > 100 µM
[20]
  GI50: 18.1 µM
  TGI: > 100 µM
[21]
  GI50: 75.5 µM
  TGI: > 100 µM
[22]
  GI50: > 100 µM
  TGI: > 100 µM
[23]
  GI50: 25.4 µM
  TGI: > 100 µM
[24]
  GI50: 97.9 µM
  TGI: > 100 µM
[25]
  GI50: 48.4 µM
  TGI: > 100 µM
[26]
  GI50: 94.1 µM
  TGI: > 100 µM
[27]
  GI50: > 100 µM
  TGI: > 100 µM
[28]
  GI50: 23.6 µM
  TGI: > 100 µM
[29]
  GI50: > 100 µM
  TGI: > 100 µM
[30]
  GI50: 56.1 µM
  TGI: > 100 µM
[31]
  GI50: > 100 µM
  TGI: > 100 µM
[32]
  GI50: > 100 µM
  TGI: > 100 µM
[33]
  GI50: 93.8 µM
  TGI: > 100 µM
[34]
  GI50: 4.11 µM
  TGI: > 100 µM
[35]
  GI50: 82.1 µM
  TGI: > 100 µM
[36]
  GI50: > 100 µM
  TGI: > 100 µM
[37]
  GI50: 28 µM
  TGI: > 100 µM
[38]
  GI50: 57.2 µM
  TGI: > 100 µM
[39]
  GI50: 17 µM
  TGI: 92 µM
[40]
  GI50: 3.44 µM
  TGI: > 100 µM
[41]
  GI50: 1.63 µM
  TGI: 3.2 µM
[42]
  GI50: 7.78 µM
  TGI: > 100 µM
[43]
  GI50: 14.6 µM
  TGI: > 100 µM
[44]
  GI50: > 100 µM
  TGI: > 100 µM
[45]
  GI50: 12.3 µM
  TGI: > 100 µM
[46]
  GI50: 16.2 µM
  TGI: > 100 µM
[47]
  TGI: > 100 µM
[48]
  GI50: 32.6 µM
  TGI: > 100 µM
[49]
  GI50: 61.9 µM
  TGI: > 100 µM
[50]
  GI50: 28.8 µM
  TGI: > 100 µM
[51]
  GI50: 63.1 µM
  TGI: > 100 µM
[52]
  GI50: 7.4 µM
  TGI: 49 µM
[53]
  GI50: > 100 µM
  TGI: > 100 µM
[54]
  GI50: > 100 µM
  TGI: > 100 µM
[55]
  GI50: 10.3 µM
  TGI: 96.2 µM
[56]
  GI50: > 100 µM
  TGI: > 100 µM
